Data taken from patent US6759547B1, “5,6,7,8-tetrahydronaphthalen-2-yl 2,6-difluoroheptatrienoic acid derivatives having serum glucose reducing activity” (Allergan, Inc., priority 2003, dated 2004).

Assays:
[1] = test system: female diabetic db/db mice; assay: serum glucose, triglyceride and thyroxine levels in db/db mice; assay type: in vivo
Procedure: An assay described below tests the effect of compounds of the invention on serum glucose, tryglyceride and thyroxine levels in female 9-10 weeks old db/db mice.
Blood samples (70 μl) were taken by orbital bleeding at 11:00 AM on day 0 (pre-treatment), day 3, and day 6. On day 7, a blood sample (700 μl) was taken at 11:00 AM and the animals were sacrificed. Glucose, triglyceride and thyroxine (T4) levels were determined on a Boehringer Manheim Hatachi Clinical Chemistry Analyzer using standard protocols provided by the manufacturer and reagents that were supplied in commercially available kits (glucose and T4; Boehringer Manheim; triglycerides: Roche Diagnostics). Seven animals were treated in each group.

RXRβ = molecular target: T1, RXRβ (Homo sapiens, UniProt P28702); assay: holoreceptor transactivation assay, RXRβ; assay type: cell-based
T1 construct: expressed in transfected cells
T1 sequence (P28702 1-533): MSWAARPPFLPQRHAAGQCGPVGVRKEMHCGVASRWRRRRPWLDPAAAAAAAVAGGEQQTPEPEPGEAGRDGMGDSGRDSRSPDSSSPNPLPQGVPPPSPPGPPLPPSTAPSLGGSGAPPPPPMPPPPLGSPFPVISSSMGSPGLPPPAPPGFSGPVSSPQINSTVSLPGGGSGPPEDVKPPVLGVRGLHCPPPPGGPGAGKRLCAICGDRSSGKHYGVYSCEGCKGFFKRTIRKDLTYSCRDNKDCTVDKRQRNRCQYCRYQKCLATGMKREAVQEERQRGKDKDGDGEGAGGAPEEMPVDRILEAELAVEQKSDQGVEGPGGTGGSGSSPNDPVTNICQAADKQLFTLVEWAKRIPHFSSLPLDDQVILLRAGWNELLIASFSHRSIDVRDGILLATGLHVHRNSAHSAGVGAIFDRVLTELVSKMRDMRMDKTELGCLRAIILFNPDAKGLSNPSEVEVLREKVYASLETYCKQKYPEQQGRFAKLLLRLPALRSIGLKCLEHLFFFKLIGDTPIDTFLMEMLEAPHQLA
Description: (§1) Particularly, the transactivation data pertaining to activation of the RAR receptors were obtained in the chimeric assay, and the transactivation data pertaining to the activation of RXR receptors were obtained in the holoreceptor assay.

RXRα = molecular target: T2, RXRα (Homo sapiens, UniProt P19793); assay: holoreceptor transactivation assay, RXRα; assay type: cell-based; conditions: efficacy as a percentage compared to the standard compound
T2 construct: expressed in transfected cells
T2 sequence (P19793 1-462): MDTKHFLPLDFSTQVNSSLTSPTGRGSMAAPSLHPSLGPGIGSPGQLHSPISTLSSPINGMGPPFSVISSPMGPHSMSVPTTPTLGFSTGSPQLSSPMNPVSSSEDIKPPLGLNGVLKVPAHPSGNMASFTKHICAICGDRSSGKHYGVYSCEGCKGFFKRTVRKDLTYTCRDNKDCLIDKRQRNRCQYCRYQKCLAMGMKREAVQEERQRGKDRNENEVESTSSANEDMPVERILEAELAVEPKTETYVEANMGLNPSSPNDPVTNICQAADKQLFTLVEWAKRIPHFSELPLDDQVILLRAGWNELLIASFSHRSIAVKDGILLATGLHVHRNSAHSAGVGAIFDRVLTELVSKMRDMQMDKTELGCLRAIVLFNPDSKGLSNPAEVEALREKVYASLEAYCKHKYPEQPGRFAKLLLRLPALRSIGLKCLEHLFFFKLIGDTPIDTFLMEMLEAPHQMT
Description: as §1

[2] = female db/db mice, day 0 (pre-treatment), groups: standard compound 5 mg/kg, Compound 27 50 mg/kg
[3] = female db/db mice, oral gavage daily, standard compound 5 mg/kg, Compound 27 50 mg/kg

CC(/C=C/[C@@H]1C[C@]1(C)c1ccc2c(c1)C(C)(C)CCC2(C)C)=C\C(=O)O [Standard compound, (2E,4E,1'S,2'S)-3-methyl-5-[2′-methyl-2′-(5,5,8,8-tetramethyl-5,6,7,8-tetrahydro-naphthalen-2-yl)-cyclopropyl]-penta-2,4-dienoic acid]
effect on serum thyroxine levels ([1]; diabetic mammals (db/db mice), in words): undesirable side effect of reducing serum thyroxine levels
Glucose Day 0 [1, 2]: 356 mg/dL
Triglycerides Day 0 [1, 2]: 152 mg/dL
T4 Day 7 ([1]; female db/db mice, oral gavage daily for seven days, standard compound 5 mg/kg, Compound 27 50 mg/kg): 2.6 ± 0.6 µg/dL
Glucose Day 3, 3 h [1, 3]: 249 mg/dL
Glucose Day 6, 3 h [1, 3]: 239 mg/dL
Triglycerides Day 3, 3 h [1, 3]: 137 mg/dL
RXR Trans. efficacy β (RXRβ; efficacy as a percentage compared to the standard compound): 100%
efficacy in activating RXRβ compared with RXRα and RXRγ (RXRβ; transactivation, comparison of subtypes): approximately equally efficacious in activating the RXRα, RXRβ and RXRγ subtypes
RXR Trans. efficacy α (RXRα): 100%
